# Data published in patent US11780851B2, “LRRK2 inhibitors” (H. Lundbeck A/S, priority 2021, dated 2023).
# Where two headings read alike, the source gives them in different places.
# Experiments:
# [1] = Hepatocyte intrinsic clearance assay; type: in vitro ADME, human; settings: human, pooled donor, cryopreserved hepatocytes, pH 7.4, 0.1 μM, 2 h at 37° C., 1×10^6 hepatocytes/mL; * measured on 3 separate occasions, ** on a single occasion
# Description: Test compounds (final concentration 0.1 μM, 0.05% organic) were incubated for 2 h at 37° C., with shaking, in supplemented Leibovitz L-15 media (pH7.4) containing commercially sourced, pooled donor, cryopreserved hepatocytes (final concentration 1×10^6 hepatocytes/m L). The CLint reactions (350 μL) were initiated by addition of test compound. Aliquots (25 μL) were taken at 1, 5, 10, 15, 30, 60, 90 and 120 minutes and then protein crashed with ice-cold acetonitrile containing internal standard (150 μL) then centrifuged (1960 g for 20 minutes at 4° C.). Supernatant was diluted (1:4) with deionized water then analyzed by liquid chromatography (LC)-tandem mass spectrometry (MS/MS). The intrinsic clearances (CLint) were calculated from the slope (k) of the linear regressions of percentages of compound remaining in incubation against incubation time, according to equations 2 and 3.
# LRRK2 WT = target: T1, LRRK2 WT (Homo sapiens, UniProt Q5S007); assay: LRRK2 wild-type kinase activity assay (LanthaScreen TR-FRET); type: biochemical; settings: 1 nM LRRK2 WT, 1.3 mM ATP, 3.5 h at 30° C.; n≥2 tests
# T1 construct: comprises residue 970 to 2527 of the full length human wild-type LRRK2 kinase; purchased Invitrogen (Life Technologies Corporation)
# T1 sequence (Q5S007 970-2527): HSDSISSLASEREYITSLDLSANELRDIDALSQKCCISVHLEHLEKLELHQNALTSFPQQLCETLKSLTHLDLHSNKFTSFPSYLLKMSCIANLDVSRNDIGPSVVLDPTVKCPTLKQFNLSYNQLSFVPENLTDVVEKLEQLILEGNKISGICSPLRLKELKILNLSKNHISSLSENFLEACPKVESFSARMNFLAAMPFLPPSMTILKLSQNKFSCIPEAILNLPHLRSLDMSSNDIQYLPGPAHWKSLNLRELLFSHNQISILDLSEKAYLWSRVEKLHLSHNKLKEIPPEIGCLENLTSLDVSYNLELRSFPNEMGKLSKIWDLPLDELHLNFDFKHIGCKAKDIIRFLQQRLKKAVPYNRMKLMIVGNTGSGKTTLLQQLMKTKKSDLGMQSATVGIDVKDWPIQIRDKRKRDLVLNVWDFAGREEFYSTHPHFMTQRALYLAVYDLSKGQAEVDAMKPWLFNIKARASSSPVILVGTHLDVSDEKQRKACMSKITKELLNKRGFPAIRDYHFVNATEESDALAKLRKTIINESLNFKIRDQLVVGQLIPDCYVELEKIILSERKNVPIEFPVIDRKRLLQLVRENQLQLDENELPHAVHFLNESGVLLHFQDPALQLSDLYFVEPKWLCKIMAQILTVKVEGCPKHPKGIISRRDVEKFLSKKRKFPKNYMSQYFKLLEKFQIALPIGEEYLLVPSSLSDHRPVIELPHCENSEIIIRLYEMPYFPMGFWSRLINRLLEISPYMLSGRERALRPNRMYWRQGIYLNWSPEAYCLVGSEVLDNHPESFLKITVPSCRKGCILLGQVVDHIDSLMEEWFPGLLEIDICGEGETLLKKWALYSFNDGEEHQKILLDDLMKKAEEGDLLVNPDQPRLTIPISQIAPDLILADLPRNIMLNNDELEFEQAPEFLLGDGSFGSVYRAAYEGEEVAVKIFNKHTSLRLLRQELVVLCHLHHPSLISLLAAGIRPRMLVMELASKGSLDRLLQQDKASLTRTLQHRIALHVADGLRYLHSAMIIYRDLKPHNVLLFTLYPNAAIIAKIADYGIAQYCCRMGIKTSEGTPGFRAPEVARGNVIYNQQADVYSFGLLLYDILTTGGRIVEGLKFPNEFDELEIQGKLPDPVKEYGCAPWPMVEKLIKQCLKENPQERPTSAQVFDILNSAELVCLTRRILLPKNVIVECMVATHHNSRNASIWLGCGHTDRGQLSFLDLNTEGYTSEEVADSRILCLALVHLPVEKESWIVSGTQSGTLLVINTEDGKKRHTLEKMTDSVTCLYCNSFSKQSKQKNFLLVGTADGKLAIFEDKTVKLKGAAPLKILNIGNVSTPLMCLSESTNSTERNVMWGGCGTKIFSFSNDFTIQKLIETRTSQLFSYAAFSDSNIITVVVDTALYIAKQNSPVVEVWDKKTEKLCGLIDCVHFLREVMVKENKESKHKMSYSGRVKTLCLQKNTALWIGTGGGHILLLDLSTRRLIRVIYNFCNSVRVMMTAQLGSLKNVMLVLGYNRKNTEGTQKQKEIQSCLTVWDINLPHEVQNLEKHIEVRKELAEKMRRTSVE
# In short: (§1)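 TR-FRET measured phosphorylation of fluorescein-ERM LRRKtide by human LRRK2 residues 970–2527, wild-type or G2019S, detected with a terbium anti-phospho-LRRKtide antibody. The 520/495 nm ratio was normalized to uninhibited and inhibitor controls. IC50 came from a Hill fit, log-averaged over independent experiments.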
# LRRK2 G2019S = target: T2, LRRK2 G2019S (Homo sapiens, UniProt Q5S007, G2019S); assay: LRRK2 G2019S kinase activity assay (LanthaScreen TR-FRET); type: biochemical; settings: 250 pM LRRK2 G2019S, 1.3 mM ATP, 3 h at 30° C.; n≥2 tests
# T2 construct: purchased Invitrogen (Life Technologies Corporation)
# T2 sequence (Q5S007 970-2527 G2019S): as the sequence (Q5S007 970-2527) above, with G1050S counted along it
# In short: as §1
# [2] = Free fraction in plasma (equilibrium dialysis); type: in vitro ADME, male Sprague-Dawley rat; settings: rat plasma, 1 μM, 5 h at 37° C.
# Description: The free fractions in male Sprague-Dawley rat or female Gottingen minipig plasma (fuplasma) and rat brain homogenate (fubrain) were determined by equilibrium dialysis using 96-well HTD-dialysis plates with dialysis membranes (molecular weight cut off 12-14 KDa). One side of the HTD-dialysis plate was loaded with matrix (plasma or brain homogenate) and the other side with buffer (100 mM sodium phosphate buffer, pH 7.4). Test compounds were dissolved in DMSO then spiked (5 μL of 0.2 mM) into blank (995 μL) plasma or diluted brain homogenate (1:4 ratio in phosphate buffer) giving a final nominal concentration 1 μM (≤0.5% DMSO). The matrices were loaded into respective chambers and equilibrated against phosphate buffer for 5 h at 37° C. (in a humidified air incubator with 5% CO2 with shaking). Samples from both chambers (buffer and plasma or brain homogenate) were aliquoted to fresh 96-well polypropylene plates then matrix matched using an equal volume of opposite blank matrix before extraction with cold solvent (3 volumes acetonitrile) containing an appropriate bioanalytical internal standard. After centrifugation (20 min, 3200 g, 4° C.) the supernatants were diluted with appropriate volumes of water and compound concentrations were quantified by LC/MS-MS against matrix matched calibration standards. The fuplasma and fubrain were calculated as a percent free according to equation 4 below.
# Where [F] is the analyte concentration on the buffer (receiver) side of the membrane; [T] is the analyte concentration on the plasma or brain (donor) side of the membrane; [TO] is the analyte concentration in the plasma or brain sample at time zero; D is matrix dilution factor which is determined as 4 for brain matrix and 1 for plasma matrix in these assays.
# [3] = Rat B/P (brain disposition); type: in vivo, male Sprague-Dawley rats; settings: male, Sprague-Dawley; for concentration at 1 h / Kp at 1 h / Kp uu at 1 h: time point 1.0 h
# Description: Brain disposition was evaluated for each compound in male Sprague-Dawley rats (n=3, standard body weight). […] Isolated plasma and brain homogenates were extracted by standard protein precipitation in acetonitrile, containing internal standard, followed by LC-MS/MS analysis using an optimized analytical method. Concentrations of test compound in plasma and brain were quantified against matrix matched calibration standards. The total plasma and brain concentration data are presented in Table 7 alongside the calculated brain Kp (total brain concentration:total plasma concentration ratio).
# [4] = brain, oral gavage 10 mg/kg, mean ± stdev, n = 3, read-out: Total brain concentration
# [5] = brain/plasma, oral gavage 10 mg/kg, mean ± stdev, n = 3
# [6] = brain/plasma, po, 10 mg/kg, oral gavage 10 mg/kg, fubrain from brain homogenate
# [7] = plasma, oral gavage 10 mg/kg, mean ± stdev, n = 3, read-out: Total plasma concentration
CLint scaled at 0.1 μM [1] [mL/min/kg],IC50 (LRRK2 WT) [nM],IC50 (LRRK2 G2019S) [nM],fuplasma (% free) [2] [% free],"concentration at 1 h [3, 4] [ng/g]","Kp at 1 h [3, 5]","Kp uu at 1 h [3, 6]","concentration at 1 h [3, 7] [ng/mL]","concentration at 1 h ([3]; brain, oral gavage 5 mg/kg, mean ± stdev, n = 3, read-out: Total brain concentration) [ng/g]","Kp uu at 1 h ([3]; brain/plasma, oral gavage 5 mg/kg, fubrain from brain homogenate)","Kp at 1 h ([3]; brain/plasma, oral gavage 5 mg/kg, mean ± stdev, n = 3)","concentration at 1 h ([3]; plasma, oral gavage 5 mg/kg, mean ± stdev, n = 3, read-out: Total plasma concentration) [ng/mL]","concentration at 0.5 h ([3]; brain, oral gavage 10 mg/kg, time point 0.5 h, mean ± stdev, n = 3, read-out: Total brain concentration) [ng/g]","Kp uu at 0.5 h ([3]; brain/plasma, oral gavage 10 mg/kg, time point 0.5 h, fubrain from brain homogenate)","Kp at 0.5 h ([3]; brain/plasma, oral gavage 10 mg/kg, time point 0.5 h, mean ± stdev, n = 3)","concentration at 0.5 h ([3]; plasma, oral gavage 10 mg/kg, time point 0.5 h, mean ± stdev, n = 3, read-out: Total plasma concentration) [ng/mL]",Structure (SMILES)
6.33,14,4.3,–,–,–,–,–,–,–,–,–,–,–,–,–,"Cc1c2c(nn1[C@H]1CCCOCC1)OCCCn1nc(Cl)c3cnc(nc31)N2 (single isomer, unassigned) [Example 29, (−)-(R) or (S)-8-Chloro-3-methyl-2-(oxepan-4-yl)-2,4,12,13-tetrahydro-11H-5,7-(azenometheno)dipyrazolo[3,4-b:5′,1′-g][1]oxa[4,6,8]triazacycloundecine]"
5,19,7,–,–,–,–,–,–,–,–,–,–,–,–,–,"[2H]C([2H])([2H])c1c2c(nn1[C@H]1CCCOCC1)OCCCn1nc(Cl)c3cnc(nc31)N2 (single isomer, unassigned) [Example 58, (+)-(R) or (S)-8-Chloro-3-(methyl-d3)-2-(oxepan-4-yl)-2,4,12,13-tetrahydro-11H-5,7-(azenometheno)dipyrazolo[3,4-b:5′,1′-g][1]oxa[4,6,8]triazacycloundecine]"
–,19,6.2,30.2,502 ± 92,1.62 ± 0.16,0.38 ± 0.04,314 ± 83,–,–,–,–,–,–,–,–,"Clc1nn2c3nc(ncc13)Nc1c(nn(C3CCOCC3)c1C1CC1)OCCC2 [Example 10, 8-Chloro-3-cyclopropyl-2-(tetrahydro-2H-pyran-4-yl)-2,4,12,13-tetrahydro-11H-5,7-(azenometheno)dipyrazolo[3,4-b:5′,1′-g][1]oxa[4,6,8]triazacycloundecine]"
–,16,4,38.0,421 ± 168,1.52 ± 0.37,0.3 ± 0.07,280 ± 102,–,–,–,–,–,–,–,–,"Cc1c2c(nn1C1(C)COC1)OCCCn1nc(Cl)c3cnc(nc31)N2 [Example 14, 8-Chloro-3-methyl-2-(3-methyloxetan-3-yl)-2,4,12,13-tetrahydro-11H-5,7-(azenometheno)dipyrazolo[3,4-b:5′,1′-g][1]oxa[4,6,8]triazacycloundecine]"
–,16,5.1,12.0,110 ± 18,2.87 ± 0.04,0.65 ± 0.01,38 ± 6,–,–,–,–,–,–,–,–,"Cc1c2c(nn1[C@H]1CC[C@H](F)CC1)OCCCn1nc(Cl)c3cnc(nc31)N2 [Example 25, 8-Chloro-2-((1r,4r)-4-fluorocyclohexyl)-3-methyl-2,4,12,13-tetrahydro-11H-5,7-(azenometheno)dipyrazolo[3,4-b:5′,1′-g][1]oxa[4,6,8]triazacycloundecine]"
–,18,5.9,11.0,–,–,–,–,37 ± 1,0.4 ± 0.07,0.87 ± 0.15,43 ± 9,–,–,–,–,"Cc1c2c(nn1C13CC(C#N)(C1)C3)OCCCn1nc(Cl)c3cnc(nc31)N2 [Example 33, 3-(8-Chloro-3-methyl-12,13-dihydro-11H-5,7-(azenometheno)dipyrazolo[3,4-b:5′,1′-g][1]oxa[4,6,8]triazacycloundecin-2(4H)-yl)bicyclo[1.1.1]pentane-1-carbonitrile]"
–,28,11,30.0,–,–,–,–,–,–,–,–,562 ± 83,0.48 ± 0.03,1.58 ± 0.1,355 ± 31,"Cc1c2c(nn1[C@H]1[C@@H]3COC[C@@H]31)OCCCn1nc(Cl)c3cnc(nc31)N2 [Example 38, 2-((1R,5S,6r)-3-Oxabicyclo[3.1.0]hexan-6-yl)-8-chloro-3-methyl-2,4,12,13-tetrahydro-11H-5,7-(azenometheno)dipyrazolo[3,4-b:5′,1′-g][1]oxa[4,6,8]triazacycloundecine]"
